{"source": "patent US20180271470A1", "about": "“METHODS FOR QUANTIFYING PANCREATIC BETA CELL FUNCTION AND MASS PROPERTIES WITH RADIOMANGANESE POSITRON EMISSION TOMOGRAPHY” (Wisconsin Alumni Research Foundation, priority 2017, published 2018)", "key": {"[1]": {"settings": "[^18F]-FDG study; cited from earlier work"}, "[2]": {"settings": "mice, other studies; cited from earlier work"}, "[3]": {"test": "Dynamic PET of ^51Mn^2+ rapid IV bolus under isoflurane", "type": "in vivo, ICR mice", "description": "(§1) All animal studies were conducted under a protocol approved by the University of Wisconsin Institutional Animal Care and Use Committee. Non-fasted healthy ICR mice (Envigo, Indianapolis, Ind.) were divided into two groups. Mice in the first group (n=2) were anaesthetized by isoflurane (4% induction, 1% maintenance), tail-vein catheters were affixed, and mice were placed on the microPET/CT bed in a prone position (Inveon, Siemens Preclinical Solutions, Knoxville, Tenn.). Dynamic PET acquisition was started and ^51Mn^2+ was administered in a rapid bolus (3.3 MBq, 200 μl, 10% 0.01 M NaOAc/90% PBS) through the tail-vein catheter. Sixty minutes of dynamic PET data were acquired following ^51Mn^2+ administration. Due to the impact of volatile anesthetics on voltage-dependent calcium channel (VDCC) activation, the second group (n=3) received an intravenous (I.V.) bolus of ^51Mn^2+ (1.6 MBq, 200 μL, 10% 0.01 M NaOAc/90% PBS) while awake. 60 minutes post-injection mice were anaesthetized by isoflurane and a 10 minute static PET scan acquired. Following imaging, mice were immediately sacrificed by CO2 asphyxiation, and organs were extracted. Ex vivo biodistribution measurements were performed by gamma counting (Wizard 2480, PerkinElmer, Waltham, Mass.).\nDynamic PET data were binned into […] (12×5 s, 6×10 s, 6×30 s, 6×150 s, 6×300 s) and frames were reconstructed using non-scatter-corrected 3D ordered-subset expectation maximization followed by maximum a posteriori reconstruction (OSEM3D/MAP). Static PET data were reconstructed into a single frame by OSEM3D/MAP."}, "[4]": {"test": "Static PET of ^51Mn^2+ injected in awake mice", "type": "in vivo, ICR mice", "settings": "I.V. bolus non-anaesthetized, n=3, PET 60 minutes post-injection", "description": "as §1, with “Mass.). […]” for “Mass.).”"}, "[5]": {"test": "Ex vivo ^51Mn biodistribution by gamma counting", "type": "in vivo, ICR mice", "settings": "awake I.V. bolus, gamma counting after 1 h PET", "description": "as §1"}, "[6]": {"test": "OLINDA dosimetry calculations for Mn-51 and daughter Cr-51", "set-up": "species or system human", "settings": "OLINDA input", "description": "Due to the rapid blood clearance of Mn^2+, OLINDA (Organ Level INternal Dose Assessment) dosimetry calculations were performed assuming instant compartment localization with organ activity fractions equal to those measured by ex vivo biodistribution herein. Based on the previously measured lengthy organ residence times of Mn^2+, it was also assumed that the effective organ clearance half-life (Ter) was equal to the radioactive half-life of Mn-51 (t1/2: 45.6 min). It was also assumed that Mn-51 injections were 100% radionuclidically pure. In regards to the daughter isotope, Cr-51 (t1/2: 27.7 d), it was assumed that the activity remained in same organ compartments as the parent Mn-51 biodistribution without biological clearance. Standard radiation weighting factors were used (γ=1, β=1). Based on these assumptions, effective dose (ED) and effective dose equivalent (EDE) (units of mSv/MBq) were calculated for a standard adult male and female."}}, "data": [{"compound": "OC[C@H]1OC(O)[C@H]([18F])[C@@H](O)[C@@H]1O", "note": "(some centres unmarked) [[^18F]-FDG]", "values": [{"measurement": "average dose for a study", "setting": "[1]", "value": 14.1, "unit": "mSv"}]}, {"compound": "[63Zn+2]", "note": "[^63Zn^2+]", "values": [{"measurement": "pancreatic uptake", "setting": "[2]", "value": "significant"}]}, {"compound": "^51MnCl2 [Mn-51]", "values": [{"measurement": "kidney uptake, anaesthetized dynamic PET subjects", "setting": "[3]; I.V. bolus under isoflurane, n=2", "value": "13.7±2.6", "unit": "SUV"}, {"measurement": "duration of initial distribution", "setting": "[3]; rapid IV bolus, dynamic PET", "value": "< 1", "unit": "min"}, {"measurement": "heart blood-pool clearance half-life", "setting": "[3]; rapid IV bolus, heart TAC 0.375 to 3.25 minutes post-injection", "value": "7.7 ± 0.7", "unit": "s"}, {"measurement": "kidney uptake, static PET subjects", "setting": "[4]", "value": "7.7±1.1", "unit": "SUV"}, {"measurement": "Mn-51 uptake in heart, ex vivo biodistribution", "setting": "[5]", "value": "5.6±1.8", "unit": "SUV"}, {"measurement": "Mn-51 uptake in kidneys, ex vivo biodistribution", "setting": "[5]", "value": "9.2±0.7", "unit": "SUV"}, {"measurement": "Mn-51 uptake in pancreas, ex vivo biodistribution", "setting": "[5]", "value": "7.0±1.3", "unit": "SUV"}, {"measurement": "Number of disintigrations, Total Body", "setting": "[6]; Total Body", "value": "8.70E−01", "unit": "MBq-h/MBq"}, {"measurement": "Number of disintigrations, Adrenals", "setting": "[6]; source organ Adrenals", "value": "0.00E+00", "unit": "MBq-h/MBq"}, {"measurement": "Number of disintigrations, Brain", "setting": "[6]; source organ Brain", "value": "4.43E−03", "unit": "MBq-h/MBq"}, {"measurement": "Number of disintigrations, Breasts", "setting": "[6]; source organ Breasts", "value": "0.00E+00", "unit": "MBq-h/MBq"}, {"measurement": "Number of disintigrations, Cortical Bone", "setting": "[6]; source organ Cortical Bone", "value": "8.40E−04", "unit": "MBq-h/MBq"}, {"measurement": "Number of disintigrations, Gallbladder Contents", "setting": "[6]; source organ Gallbladder Contents", "value": "0.00E+00", "unit": "MBq-h/MBq"}, {"measurement": "Number of disintigrations, Heart Contents", "setting": "[6]; source organ Heart Contents", "value": "0.00E+00", "unit": "MBq-h/MBq"}, {"measurement": "Number of disintigrations, Heart Wall", "setting": "[6]; source organ Heart Wall", "value": "2.37E−02", "unit": "MBq-h/MBq"}, {"measurement": "Number of disintigrations, Kidneys", "setting": "[6]; source organ Kidneys", "value": "6.91E−02", "unit": "MBq-h/MBq"}, {"measurement": "Number of disintigrations, LLI", "setting": "[6]; source organ LLI", "value": "0.00E+00", "unit": "MBq-h/MBq"}, {"measurement": "Number of disintigrations, Liver", "setting": "[6]; source organ Liver", "value": "6.30E−02", "unit": "MBq-h/MBq"}, {"measurement": "Number of disintigrations, Lungs", "setting": "[6]; source organ Lungs", "value": "1.68E−02", "unit": "MBq-h/MBq"}, {"measurement": "Number of disintigrations, Muscle", "setting": "[6]; source organ Muscle", "value": "2.18E−03", "unit": "MBq-h/MBq"}, {"measurement": "Number of disintigrations, Ovaries", "setting": "[6]; source organ Ovaries", "value": "0.00E+00", "unit": "MBq-h/MBq"}, {"measurement": "Number of disintigrations, Pancreas", "setting": "[6]; source organ Pancreas", "value": "4.11E−02", "unit": "MBq-h/MBq"}, {"measurement": "Number of disintigrations, Red Marrow", "setting": "[6]; source organ Red Marrow", "value": "0.00E+00", "unit": "MBq-h/MBq"}, {"measurement": "Number of disintigrations, Small Intestine", "setting": "[6]; source organ Small Intestine", "value": "0.00E+00", "unit": "MBq-h/MBq"}, {"measurement": "Number of disintigrations, Spleen", "setting": "[6]; source organ Spleen", "value": "9.16E−03", "unit": "MBq-h/MBq"}, {"measurement": "Number of disintigrations, Stomach", "setting": "[6]; source organ Stomach", "value": "0.00E+00", "unit": "MBq-h/MBq"}, {"measurement": "Number of disintigrations, Testes", "setting": "[6]; source organ Testes", "value": "0.00E+00", "unit": "MBq-h/MBq"}, {"measurement": "Number of disintigrations, Thymus", "setting": "[6]; source organ Thymus", "value": "0.00E+00", "unit": "MBq-h/MBq"}, {"measurement": "Number of disintigrations, Thyroid", "setting": "[6]; source organ Thyroid", "value": "0.00E+00", "unit": "MBq-h/MBq"}, {"measurement": "Number of disintigrations, Trabecular Bone", "setting": "[6]; source organ Trabecular Bone", "value": "0.00E+00", "unit": "MBq-h/MBq"}, {"measurement": "Number of disintigrations, ULI", "setting": "[6]; source organ ULI", "value": "6.42E−03", "unit": "MBq-h/MBq"}, {"measurement": "Number of disintigrations, Urinary Bladder Contents", "setting": "[6]; source organ Urinary Bladder Contents", "value": "0.00E+00", "unit": "MBq-h/MBq"}, {"measurement": "Number of disintigrations, Uterus/Uterine Wall", "setting": "[6]; source organ Uterus/Uterine Wall", "value": "0.00E+00", "unit": "MBq-h/MBq"}]}]}
